Where “and” joins values, the source holds several entries; their conditions need not be identical. Equal entries are not always repeated. Entries after “also recorded” stand apart in the source; their conditions may differ. Marks after values point to notes of the source that are not given here.
Key:
swine = settings: oral, 5 or 10 mg/kg BW; cited from earlier work
sheep = settings: 5 or 10 mg/kg BW; cited from earlier work
sows in labor = settings: 150 μg, sows in labor before birth of the first pig; cited from earlier work
[1] = system: pregnant crossbred female swine; test: Example 2: induction of farrowing in pregnant gilts, oral CP161,258 (two doses or single dose) or intramuscular porcine relaxin; assay type: in vivo; settings: for effects on time to birth of the first pig, number born alive, or stillborns: 1200 U porcine relaxin IM on day 113
Experimental: Animals. […] This BW was used to calculate the amount of test article to administer (T2 and T3).
Randomization of animals. Animals were ranked according to expected farrowing date and then randomly assigned to treatment within blocks of 4 animals each.
Test article administration. […] For treatment groups T2 and T3, test article was diluted (a suspension) to a concentration of 25 mg/ml in 50% propylene glycol and stored refrigerated (2-8° C.).
For treatment groups T2 and T3, animals were snared and test article was administered orally using a 60 ml syringe. […] One container of approximately 440 ml was mixed and used within each week of the 3 wk study. Each animal assigned to T2 or T3 also received approximately 30 ml of tap water to insure that test article was swallowed.
Porcine relaxin was diluted to a concentration of 1200 U/ml in sterile physiological saline on the first day of use. Diluted porcine relaxin was stored in a locked refrigerator and removed only when injections took place. Relaxin (1 ml-T4) was administered intramuscularly in the lower part of the ham of either leg with an 18-gauge, 1.5″ long needle attached to a 3 ml syringe.
Administration of test articles occurred between 7:30 am and 8:30 am on almost all days of the study.
Piglets. Response variables measured in this study were: hours from the 1st treatment to the birth of the 1st pig, number of piglets that were alive at birth (born alive), stillborn (normal appearance term piglet, but dead at time of birth), and mummies (smaller than littermates, decayed at birth). Animals were not processed (no iron shots, no clipping of needle teeth, no individual identification), but umbilical cords were clipped to […]. length if animals could not be euthanized within 2 days after birth.
Data/Analyses. […] Data were analyzed using a mixed model analysis with block as a random effect and treatment as a fixed effect (proc mixed, SAS).

[2] = T4: 1200 U pRelaxin intramuscular day 113, counted from (day 113), mean ± SD
[3] = T4: 1200 U pRelaxin intramuscular day 113, mean
[4] = Treatment 4: 1200 IU Relaxin intramuscular day 113, individual animals

Molecule: C[C@]1(O)CC[C@H]2[C@@H]3CC[C@@]45O[C@]4(C)C(O)=C(C#N)C[C@]5(C)[C@H]3CC[C@@]21C [Epostane]
- interval from oral administration to birth of the first pig (swine): about 34 hr
- interval from oral administration to birth of lambs (sheep): 33 h

Molecule: CC(C)(C)NCC(O)c1cc(Cl)c(N)c(Cl)c1 (stereo not drawn) [clenbuterol]
- delay of parturition (sows in labor): up to 15 hr

Molecule: Porcine relaxin
- effects on time to birth of the first pig, number born alive, or stillborns [1]: not effective
- effects on time to birth of the first pig, number born alive, or stillborns ([1]; listed as porcine relaxin): did not have beneficial effects
- Hr, Dose d 112 To 1st pig ± SD [1, 2]: 56 ± 26 (13) Hr
- Hr, Dose d 113 To 1st pig ± SD [1, 2]: 56 ± 26^d (13) Hr
- Piglet data: Born alive [1, 3]: 6.4 (12)
- Piglet data: Mummies [1, 3]: 0.3 (12)
- Piglet data: Stillborn [1, 3]: 1.6 (12)
- Reason (animals with incomplete data) ([1]; T4 Relaxin, individual animals): Dystocia (born alive, stillborns, mummy count; also recorded: Dystocia-(born alive, stillborns, mummy count
- Born Alive [1, 4]: 6 (3×) and 3 and 8 and 4 (2×) and 9 (2×) and 1 and 14 and 7
- Hr, 1st treatment to 1st pig [1, 4]: 10.9 h and 25.3 h and 34.2 h and 47.4 h and 48.5 h and 49.2 h and 49.7 h and 51 h and 69.9 h and 74.9 h and 77.2 h and 82.4 h and 106.3 h
- Mummies [1, 4]: 2 and 0 (10×) and 1
- Still-born [1, 4]: 5 and 0 (2×) and 1 (4×) and 2 (5×)
